Measured values as given in patent US20110053770A1, “SUBSTITUTED AMINOTHIAZOLES AND THEIR USE AS FUNGICIDES” (BAYER CROPSCIENCE AG, priority 2009, published 2011).
Marks after values point to notes of the source that are not given here.

Assay: logP by HPLC on reversed-phase columns (C 18), EEC directive 79/831 Annex V.A8
Format: physicochemical
Settings: for log P (**) / log P (***): LC-MS; for log P (**) / log P (*): acidic range; for log P (**): pH 2.7, 0.1% aqueous formic acid and acetonitrile; for log P (***): neutral range, pH 7.8, 0.001 molar aqueous ammonium bicarbonate and acetonitrile; for log P (*): pH 2.3, 0.1% aqueous phosphoric acid and acetonitrile
Description: Calibration was carried out using unbranched alkan-2-ones (having from 3 to 16 carbon atoms) with known logP values (the logP values were determined by the retention times using linear interpolation between two successive alkanones).

SMILES	log P (**)	log P (***)	log P (*)
CC(=O)N1CCCCC1=Nc1nc(-c2cccc(Cl)c2Cl)cs1 [compound 36, 1-[(2E/Z)-2-{[4-(2,3-dichlorophenyl)-1,3-thiazol-2-yl]imino}piperidin-1-yl]ethanone]	4.03	4.02	4.03
c1ccc(-c2ccccc2-c2csc(N=C3CCCCN3)n2)cc1 [compound 64, 4-(biphenyl-2-yl)-N-[(2E/Z)-piperidin-2-ylidene]-1,3-thiazole-2-amine]	1.82**	–	–
Fc1ccc(F)c(Oc2ccccc2-c2csc(N=C3CCCCN3)n2)c1 [compound 80, 4-[2-(2,5-difluorophenoxy)phenyl]-N-[(2E/Z)-piperidin-2-ylidene]-1,3-thiazole-2-amine]	–	3.98	1.94
CC(=O)N1CCCCC1=Nc1nc(-c2ccc(Cl)cc2)cs1 [compound 34, 1-[(2E/Z)-2-{[4-(4-chlorophenyl)-1,3-thiazol-2-yl]imino}piperidin-1-yl]ethanone]	3.78**; 3.78***; 3.78*	3.78**; 3.78***; 3.78*	3.78**; 3.78***; 3.78*
CC(=O)N1CCCCC1=Nc1nc(-c2cccc(F)c2F)c(C)s1 [compound 43, 1-[(2E/Z)-2-{[4-(2,3-difluorophenyl)-5-methyl-1,3-thiazol-2-yl]imino}piperidin-1-yl]ethanone]	3.37**; 3.37***; 3.37*	3.37**; 3.37***; 3.37*	3.37**; 3.37***; 3.37*
Clc1ccccc1Cc1csc(N=C2CCCCN2)n1 [compound 69, 4-(2-chlorobenzyl)-N-[(2E/Z)-piperidin-2-ylidene]-1,3-thiazole-2-amine]	–	–	1.39*
c1ccc(Oc2ccccc2-c2csc(N=C3CCCCN3)n2)cc1 [compound 10, 4-(2-phenoxyphenyl)-N-[(2E/Z)-piperidin-2-ylidene]-1,3-thiazole-2-amine]	2.09	3.91	2.07
c1ccc(Oc2ccccc2-c2csc(N=C3CCCN3)n2)cc1 [compound 98, 4-(2-phenoxyphenyl)-N-[(2E/Z)-pyrrolidin-2-ylidene]-1,3-thiazole-2-amine]	2.05	3.54	1.92
CC(=O)N1CCCCC1=Nc1nc(-c2ccccc2Oc2ccccc2)cs1 [compound 17, 1-[(2E/Z)-2-{[4-(2-phenoxyphenyl)-1,3-thiazol-2-yl]imino}piperidin-1-yl]ethanone]	4.41	4.39	4.41
c1ccc(Cc2ccccc2-c2csc(N=C3CCCCN3)n2)cc1 [compound 81, 4-(2-benzylphenyl)-N-[(2E/Z)-piperidin-2-ylidene]-1,3-thiazole-2-amine]	–	2.02***	–
CC(=O)N1CCCCC1=Nc1nc(-c2ccc(Cl)cc2)c(C)s1 [compound 42, 1-[(2E/Z)-2-{[4-(4-chlorophenyl)-5-methyl-1,3-thiazol-2-yl]imino}piperidin-1-yl]ethanone]	3.92	3.96	3.92
CC(C)(C)c1cc(Oc2ccccc2-c2csc(N=C3CCCCN3)n2)ccc1Cl [compound 12, 4-[2-(3-tert-butyl-4-chlorophenoxy)phenyl]-N-[(2E/Z)-piperidin-2-ylidene]-1,3-thiazole-2-amine]	2.92	5.96	2.92
Clc1ccc(Oc2ccccc2-c2csc(N=C3CCCN3)n2)c(Cl)c1 [compound 99, 4-[2-(2,4-dichlorophenoxy)phenyl]-N-[(2E/Z)-pyrrolidin-2-ylidene]-1,3-thiazole-2-amine]	2.49	4.43	2.49

Continued, values first:

log P (**)	log P (***)	log P (*)	SMILES
1.76	3.45	1.76	Fc1ccc(-c2csc(N=C3CCCCN3)n2)cc1Cl [compound 30, 4-(3-chloro-4-fluorophenyl)-N-[(2E/Z)-piperidin-2-ylidene]-1,3-thiazole-2-amine]
–	2.38	0.94	Clc1ccc(-c2csc(N=C3CCCCN3)n2)cn1 [compound 63, 4-(6-chloropyridin-3-yl)-N-[(2E/Z)-piperidin-2-ylidene]-1,3-thiazole-2-amine]
1.58	3.21	1.58	Fc1cccc(-c2csc(N=C3CCCCN3)n2)c1F [compound 25, 4-(2,3-difluorophenyl)-N-[(2E/Z)-piperidin-2-ylidene]-1,3-thiazole-2-amine]
1.77	3.54	1.77	FC(F)(F)Oc1ccccc1-c1csc(N=C2CCCCN2)n1 [compound 15, N-[(2E/Z)-piperidin-2-ylidene]-4-[2-(trifluoromethoxy)phenyl]-1,3-thiazole-2-amine]
1.35	2.36	1.35	COc1ccc(-c2csc(N=C3CCCCN3)n2)cc1OC [compound 27, 4-(3,4-dimethoxyphenyl)-N-[(2E/Z)-piperidin-2-ylidene]-1,3-thiazole-2-amine]
1.68	3.47	1.68	Clc1ccc(-c2csc(N=C3CCCCN3)n2)cc1 [compound 103, 4-(4-chlorophenyl)-N-[(2E/Z)-piperidin-2-ylidene]-1,3-thiazole-2-amine]
1.84	3.78	1.84	Fc1c(-c2csc(N=C3CCCCN3)n2)cccc1C(F)(F)F [compound 26, 4-[2-fluoro-3-(trifluoromethyl)phenyl]-N-[(2E/Z)-piperidin-2-ylidene]-1,3-thiazole-2-amine]
2.51	4.86	–	CC(C)(C)Cc1cccc(-c2csc(N=C3CCCCN3)n2)c1 [compound 47, 4-[3-(2,2-dimethylpropyl)phenyl]-N-[(2E/Z)-piperidin-2-ylidene]-1,3-thiazole-2-amine]
1.37**	–	–	Clc1cccc(-c2csc(N=C3CCCCN3)n2)c1 [compound 59, 4-(3-chlorophenyl)-N-[(2E/Z)-piperidin-2-ylidene]-1,3-thiazole-2-amine]
1.8**	–	–	Clc1ccc(-c2csc(N=C3CCCCN3)n2)c(Cl)c1 [compound 4, 4-(2,4-dichlorophenyl)-N-[(2E/Z)-piperidin-2-ylidene]-1,3-thiazole-2-amine]
1.8**	–	–	Brc1cccc(-c2csc(N=C3CCCCN3)n2)c1 [compound 46, 4-(3-bromophenyl)-N-[(2E/Z)-piperidin-2-ylidene]-1,3-thiazole-2-amine]
1.44**	–	–	FC(F)Oc1ccc(-c2csc(N=C3CCCCN3)n2)cc1 [compound 49, 4-[4-(difluoromethoxy)phenyl]-N-[(2E/Z)-piperidin-2-ylidene]-1,3-thiazole-2-amine]
–	3.95	2.12	Fc1ccc(Oc2ccc(-c3csc(N=C4CCCCN4)n3)cc2)c(F)c1 [compound 9, 4-[4-(2,4-difluorophenoxy)phenyl]-N-[(2E/Z)-piperidin-2-ylidene]-1,3-thiazole-2-amine]
2.66	4.9	–	Cc1ccc(Oc2ccccc2-c2csc(N=C3CCCCN3)n2)c(C)c1 [compound 1, 4-[2-(2,4-dimethylphenoxy)phenyl]-N-[(2E/Z)-piperidin-2-ylidene]-1,3-thiazole-2-amine]
